According to article PMC4773098, “Inhibition of IKKα by BAY61-3606 Reveals IKKα-Dependent Histone H3 Phosphorylation in Human Cytomegalovirus Infected Cells” (PLoS ONE, 2016):
Where a name gives a salt, the structure may show the parent alone.

What was measured:
Format in all cases: biochemical
[1] = molecular target: T1, GCK (germinal center kinase, MAP4K2) (Homo sapiens, UniProt Q12851); test: in vitro radiometric kinase assay at […] BAY61-3606 (Fig 3B)
T1 construct: Residues 1–473 glutathione-s-transferase (GST) tagged protein
T1 sequence (Q12851 1-473): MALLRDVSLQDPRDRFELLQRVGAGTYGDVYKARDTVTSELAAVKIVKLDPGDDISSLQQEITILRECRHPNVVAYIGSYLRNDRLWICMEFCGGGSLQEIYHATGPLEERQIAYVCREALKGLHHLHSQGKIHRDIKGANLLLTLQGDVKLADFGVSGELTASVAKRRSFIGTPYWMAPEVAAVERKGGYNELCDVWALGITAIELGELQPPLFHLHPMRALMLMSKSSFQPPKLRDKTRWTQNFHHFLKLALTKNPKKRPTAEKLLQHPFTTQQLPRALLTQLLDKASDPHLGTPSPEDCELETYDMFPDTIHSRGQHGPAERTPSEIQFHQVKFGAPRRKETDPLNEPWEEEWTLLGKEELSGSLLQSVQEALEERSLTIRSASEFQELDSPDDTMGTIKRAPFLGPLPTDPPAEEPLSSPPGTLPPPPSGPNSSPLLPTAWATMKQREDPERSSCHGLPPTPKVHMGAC

SYK = molecular target: T2, SYK (Homo sapiens, UniProt P43405); test: as above
T2 construct: Full length His-tagged protein

IKKα = molecular target: T3, IKKα (Homo sapiens, UniProt O15111); test: in vitro radiometric kinase assay ([γ-33P-ATP], KinaseProfiler), dose response
T3 construct: gene CHUK; Full length GST-tagged protein
T3 sequence (O15111 1-745): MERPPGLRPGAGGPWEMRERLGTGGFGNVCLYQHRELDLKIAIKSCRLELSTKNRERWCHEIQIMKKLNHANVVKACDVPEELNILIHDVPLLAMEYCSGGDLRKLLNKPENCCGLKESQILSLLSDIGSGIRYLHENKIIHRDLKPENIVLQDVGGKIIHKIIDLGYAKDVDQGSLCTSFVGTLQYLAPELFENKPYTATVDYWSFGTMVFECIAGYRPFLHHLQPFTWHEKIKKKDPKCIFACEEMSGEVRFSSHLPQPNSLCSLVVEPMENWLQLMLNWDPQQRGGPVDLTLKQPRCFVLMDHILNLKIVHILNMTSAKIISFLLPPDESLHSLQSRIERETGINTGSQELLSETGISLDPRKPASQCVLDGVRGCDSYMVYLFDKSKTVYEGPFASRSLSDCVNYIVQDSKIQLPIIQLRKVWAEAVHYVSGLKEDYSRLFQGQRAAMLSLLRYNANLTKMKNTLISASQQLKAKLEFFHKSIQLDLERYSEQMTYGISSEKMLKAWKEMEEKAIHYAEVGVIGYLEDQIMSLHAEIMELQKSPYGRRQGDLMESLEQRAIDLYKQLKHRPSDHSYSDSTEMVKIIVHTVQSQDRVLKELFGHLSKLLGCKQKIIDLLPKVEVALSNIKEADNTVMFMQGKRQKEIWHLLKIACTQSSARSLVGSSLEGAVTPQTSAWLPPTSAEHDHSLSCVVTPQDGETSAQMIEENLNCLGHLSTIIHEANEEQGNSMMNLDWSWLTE

IC50 (IKKα): 45 nM
SMILES: COc1ccc(-c2cc3nccn3c(Nc3ncccc3C(N)=O)n2)cc1OC [BAY61-3606, 2-[7-(3,4-dimethoxyphenyl)-imidazo[1,2-c]pyrimidin-5-ylamino]nicotinamide dihydrochloride]
in vitro radiometric kinase assay at 10 μM BAY61-3606 (Fig 3B) [1]: We observed that BAY61-3606 is a potent inhibitor of SYK, GCK and IKKα, but not IKKβ or LYN | in vitro radiometric kinase assay at 10 μM BAY61-3606 (Fig 3B) (SYK): We observed that BAY61-3606 is a potent inhibitor of SYK, GCK and IKKα, but not IKKβ or LYN
